Laboratory results from patent publication US9708314B2, “Heterocyclic amide compound” (NISSAN CHEMICAL INDUSTRIES, LTD., priority 2013, dated 2017).

How the values were obtained:
Assay type in all cases: in vivo
[1] = system: directly sowed Oryza sativa; test: Test Example 3: effect on crop by application to foliage (Wagner pot, water depth 0.1-0.5 cm); conditions: Nineteenth Table
Outline: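 Rice-field weeds and directly sown rice were grown 14 days in flooded alluvial soil (water depth 0.1–0.5 cm) at 25–30 °C in a greenhouse. An emulsion formulation diluted to the stated g/ha rate was sprayed onto stems and leaves. Effects were scored on a 0–5 scale (herbicidal ratio bands) three weeks after treatment.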

[2] = system: Triticum aestivum; test: Test Example 4: effect on crop by application to foliage (diluvial soil, plastic box); conditions: application to foliage, application herbicide amount 320 g/ha
Outline: (§1)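 Emulsion-formulated compound, diluted to a predetermined g/ha dose, applied by small sprayer to leaves and stems of 14-day-old seedlings grown in sterilized diluvial soil. Effect rated on 0–5 herbicidal-ratio scale three weeks on.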

[3] = system: Glycine max; test: as above; conditions: application to foliage, application herbicide amount 320 g/ha
Outline: as §1

[4] = system: directly sowed Oryza sativa; test: as above; conditions: application to foliage, application herbicide amount 320 g/ha
Outline: as §1

[5] = system: Beta vulgaris ssp. vulgaris; test: as above; conditions: application to foliage, application herbicide amount 320 g/ha
Outline: as §1

[6] = system: Brassica campestris L.; test: as above; conditions: application to foliage, application herbicide amount 320 g/ha
Outline: as §1

[7] = system: Scirpus juncoides; test: Test Example 2: herbicidal activity, application during weed generation in submerged conditions; conditions: Eighteenth Table
Excerpt: (§2) 5 Herbicidal ratio of 90% or more (almost completely withered) 4 Herbicidal ratio of 70% or more and less than 90% 3 Herbicidal ratio of 40% or more and less than 70% 2 Herbicidal ratio of 20% or more and less than 40% 1 Herbicidal ratio of 5% or more and less than 20% 0 Herbicidal ratio of 5% or less (almost no effect) [Test Example 2] Herbicidal Activity Test by Application During Weed Generation in Submerged Conditions After alluvial soil was placed into 1/10000 are of Wagner pot, water was poured and mixed to form a submerged condition having a water depth of 4 cm. Seeds of Echinochloa oryzacola Vasing., Scirpus juncoides, and Monochoria vaginalis were sowed in a mixed manner in the above pot and the pot was placed in the greenhouse of 25° C. to 30° C. to grow the plants. When Echinochloa oryzacola Vasing., Scirpus juncoides, and Monochoria vaginalis were grown to one leaf stage to two leaf stage, the emulsion agent containing the compound of the present invention prepared in accordance with Formulation Example 2 was diluted with water so as to be a predetermined herbicide amount and the diluted compound was applied to the surface of the water. Three weeks after the herbicide application, effects on each plant were investigated in accordance with the criteria of Test Example 1. A: Echinochloa oryzicola Vasing., B: Scirpus juncoides, C: Monochoria vaginalis, D: Leptochloa chinensis, E: Cyperus difformis, F: Digitaria ciliaris, G: Setaria viridis, H: Echinochloa crus-galli var. crus-galli, I: Avena fatua, J: Alopecurus myosuroides, K: Lolium multiflorum Lam., L: Apera spica-venti., M: Abutilon theophrasti, N: Amaranthus retroflexus, O: Chenopodium album, P: Stellaria media, Q: Galium spurium, R: Veronica persica, a: transplanted Oryza sativa, b: directly sowed Oryza sativa, c: Zea mays, d: Glycine max, e: Triticum aestivum, f: Beta vulgaris ssp. vulgaris, and g: Brassica campestris L. The application herbicide amount (g/ha) means an amount that a concentration is adjusted so that, when an application amount is converted into per hectare (1 ha), the herbicide is applied by the number of grams (g) of the described value.

[8] = system: Echinochloa oryzacola Vasing.; test: as above; conditions: Eighteenth Table
Excerpt: as §2

[9] = system: Monochoria vaginalis; test: as above; conditions: Eighteenth Table
Excerpt: as §2

[10] = application herbicide amount 400 g/ha
[11] = application herbicide amount 320 g/ha
[12] = application herbicide amount 280 g/ha

Structure (SMILES) | b (directly sowed Oryza sativa) effect on crop grade [1, 10] | e (Triticum aestivum) effect on crop [2] | c (Glycine max) effect on crop [3] | d (directly sowed Oryza sativa) effect on crop [4] | f (Beta vulgaris ssp. vulgaris) effect on crop [5] | g (Brassica campestris L.) effect on crop [6] | B (Scirpus juncoides) herbicidal ratio grade [7, 11] | A (Echinochloa oryzicola Vasing.) herbicidal ratio grade [8, 11] | C (Monochoria vaginalis) herbicidal ratio grade [9, 11] | b (directly sowed Oryza sativa) effect on crop grade [1, 11] | B (Scirpus juncoides) herbicidal ratio grade [7, 12] | A (Echinochloa oryzicola Vasing.) herbicidal ratio grade [8, 12] | C (Monochoria vaginalis) herbicidal ratio grade [9, 12]
Cc1nnc(NC(=O)c2ccc(C(F)(F)F)n3c(C)nnc23)o1 [1-002] | 0 (Herbicidal ratio of 5% or less (almost no effect)) | 1 (Herbicidal ratio of 5% or more and less than 20%) | 0 (Herbicidal ratio of 5% or less (almost no effect)) | 3 (Herbicidal ratio of 40% or more and less than 70%) | 5 (Herbicidal ratio of 90% or more (almost completely withered)) | 4 (Herbicidal ratio of 70% or more and less than 90%) | 0 (Herbicidal ratio of 5% or less (almost no effect)) | 3 (Herbicidal ratio of 40% or more and less than 70%) | 0 (Herbicidal ratio of 5% or less (almost no effect)) | – | – | – | –
Cc1nnc(NC(=O)c2ccc(C(F)(F)F)n3c(C(C)C)nnc23)o1 [1-004, 3-Isopropyl-N-(5-methyl-1,3,4-oxadiazol-2-yl)-5-(trifluoromethyl)-[1,2,4]triazolo[4,3-a]pyridine-8-carboxamide] | 0 (Herbicidal ratio of 5% or less (almost no effect)) | 2 (Herbicidal ratio of 20% or more and less than 40%) | 4 (Herbicidal ratio of 70% or more and less than 90%) | 4 (Herbicidal ratio of 70% or more and less than 90%) | 4 (Herbicidal ratio of 70% or more and less than 90%) | 3 (Herbicidal ratio of 40% or more and less than 70%) | 3 (Herbicidal ratio of 40% or more and less than 70%) | 4 (Herbicidal ratio of 70% or more and less than 90%) | 4 (Herbicidal ratio of 70% or more and less than 90%) | – | – | – | –
CCc1nnc(NC(=O)c2ccc(C(F)(F)F)n3c(C(C)C)nnc23)o1 [1-005] | 0 (Herbicidal ratio of 5% or less (almost no effect)) | 0 (Herbicidal ratio of 5% or less (almost no effect)) | 1 (Herbicidal ratio of 5% or more and less than 20%) | 0 (Herbicidal ratio of 5% or less (almost no effect)) | 0 (Herbicidal ratio of 5% or less (almost no effect)) | 0 (Herbicidal ratio of 5% or less (almost no effect)) | 1 (Herbicidal ratio of 5% or more and less than 20%) | 5 (Herbicidal ratio of 90% or more (almost completely withered)) | 0 (Herbicidal ratio of 5% or less (almost no effect)) | – | – | – | –
Cc1nnc(NC(=O)c2ccc(C(F)(F)F)n3c(C4CC4)nnc23)o1 [1-010] | 0 (Herbicidal ratio of 5% or less (almost no effect)) | 1 (Herbicidal ratio of 5% or more and less than 20%) | 1 (Herbicidal ratio of 5% or more and less than 20%) | 4 (Herbicidal ratio of 70% or more and less than 90%) | 5 (Herbicidal ratio of 90% or more (almost completely withered)) | 3 (Herbicidal ratio of 40% or more and less than 70%) | 1 (Herbicidal ratio of 5% or more and less than 20%) | 4 (Herbicidal ratio of 70% or more and less than 90%) | 4 (Herbicidal ratio of 70% or more and less than 90%) | – | – | – | –
CCC(CC)c1nnc2c(C(=O)Nc3nnc(C)o3)ccc(C(F)(F)F)n12 [1-011] | 0 (Herbicidal ratio of 5% or less (almost no effect)) | 0 (Herbicidal ratio of 5% or less (almost no effect)) | 3 (Herbicidal ratio of 40% or more and less than 70%) | 4 (Herbicidal ratio of 70% or more and less than 90%) | 5 (Herbicidal ratio of 90% or more (almost completely withered)) | 3 (Herbicidal ratio of 40% or more and less than 70%) | 3 (Herbicidal ratio of 40% or more and less than 70%) | 5 (Herbicidal ratio of 90% or more (almost completely withered)) | 3 (Herbicidal ratio of 40% or more and less than 70%) | – | – | – | –
Cc1nnc(NC(=O)c2ccc(C(F)(F)F)n3c(-c4ccccc4)nnc23)o1 [1-012] | 0 (Herbicidal ratio of 5% or less (almost no effect)) | 0 (Herbicidal ratio of 5% or less (almost no effect)) | 1 (Herbicidal ratio of 5% or more and less than 20%) | 2 (Herbicidal ratio of 20% or more and less than 40%) | 3 (Herbicidal ratio of 40% or more and less than 70%) | 4 (Herbicidal ratio of 70% or more and less than 90%) | 2 (Herbicidal ratio of 20% or more and less than 40%) | 2 (Herbicidal ratio of 20% or more and less than 40%) | 2 (Herbicidal ratio of 20% or more and less than 40%) | – | – | – | –
Cc1nnc(NC(=O)c2ccc(C(F)(F)F)n3c(Br)nnc23)o1 [1-014] | – | 1 (Herbicidal ratio of 5% or more and less than 20%) | 0 (Herbicidal ratio of 5% or less (almost no effect)) | 3 (Herbicidal ratio of 40% or more and less than 70%) | 5 (Herbicidal ratio of 90% or more (almost completely withered)) | 2 (Herbicidal ratio of 20% or more and less than 40%) | – | – | – | 1 (Herbicidal ratio of 5% or more and less than 20%) | 3 (Herbicidal ratio of 40% or more and less than 70%) | 2 (Herbicidal ratio of 20% or more and less than 40%) | 0 (Herbicidal ratio of 5% or less (almost no effect))
COCc1nnc2c(C(=O)Nc3nnc(C)o3)ccc(C(F)(F)F)n12 [1-015] | – | 2 (Herbicidal ratio of 20% or more and less than 40%) | 1 (Herbicidal ratio of 5% or more and less than 20%) | 4 (Herbicidal ratio of 70% or more and less than 90%) | 5 (Herbicidal ratio of 90% or more (almost completely withered)) | 4 (Herbicidal ratio of 70% or more and less than 90%) | 2 (Herbicidal ratio of 20% or more and less than 40%) | 4 (Herbicidal ratio of 70% or more and less than 90%) | 1 (Herbicidal ratio of 5% or more and less than 20%) | 1 (Herbicidal ratio of 5% or more and less than 20%) | – | – | –
COc1ccc(-c2nnc3c(C(=O)Nc4nnc(C)o4)ccc(C(F)(F)F)n23)cc1 [1-016] | – | 0 (Herbicidal ratio of 5% or less (almost no effect)) | 0 (Herbicidal ratio of 5% or less (almost no effect)) | 0 (Herbicidal ratio of 5% or less (almost no effect)) | 5 (Herbicidal ratio of 90% or more (almost completely withered)) | 3 (Herbicidal ratio of 40% or more and less than 70%) | 0 (Herbicidal ratio of 5% or less (almost no effect)) | 3 (Herbicidal ratio of 40% or more and less than 70%) | 0 (Herbicidal ratio of 5% or less (almost no effect)) | 1 (Herbicidal ratio of 5% or more and less than 20%) | – | – | –
